Test results from US20060046968A1, “Prodrug substituted benzoxazoles as estrogenic agents” (priority 2004, published 2006).

Experiments:
Assay type in all cases: in vivo
[1] = system: Sexually immature Sprague-Dawley rats; assay: Rat uterotrophic test procedure (Procedure 1); conditions: compound 2 mg/rat + 17α-ethinyl, 17β-estradiol 0.06 μg/rat s.c. (antagonist mode)
[2] = system: Sexually immature 129 SvE mice; assay: Mouse uterotrophic test procedure (Procedure 2); conditions: compound 50 mg/kg s.c., days 22-25
[3] = system: ovariectomized Sprague-Dawley rats; assay: Bone mineral density in the ovariectomized rat (pQCT, proximal tibia); conditions: compound 10 mg/kg s.c.; 5 weeks
[4] = system: Male HLA-B27 rats; assay: HLA rat test for inflammatory bowel disease: stool character (3 = diarrhea; 2 = soft stool; 1 = normal stool)

C=Cc1cc(O)cc2nc(-c3ccc(O)c(F)c3)oc12 [Example 24, 2-(3-FLUORO-4-HYDROXYPH ENYL)-7-VI NYL-1,3-BENZOXAZOL-5-OL]
mean uterine weight ± SEM [1]: 80.7 ± 5.3 mg | mean uterine weight ± SEM [2]: 10.7 ± 0.9 mg | Total Bone Mineral Density (mean ± SEM) [3]: 517.56 ± 9.67 mg/mL | Trabecular Bone Mineral Density (mean ± SEM) [3]: 321.16 ± 9.04 mg/mL | Stool quality ([4]; Study A, 50 mg/kg s.c.): Stool quality was improved | Stool Character (group's average score) ([4]; Study A, 50 mg/kg s.c. once per day, Day 1): 2.8 | Stool Character (group's average score) ([4]; Study A, 50 mg/kg s.c. once per day, Day 2): 2 | Stool Character (group's average score) ([4]; Study A, 50 mg/kg s.c. once per day, Day 3): 1.8 | Stool Character (group's average score) ([4]; Study A, 50 mg/kg s.c. once per day, Day 4): 1.6 | Stool Character (group's average score) ([4]; Study A, 50 mg/kg s.c. once per day, Day 5): 1.6 | Stool Character (group's average score) ([4]; Study A, 50 mg/kg s.c. once per day, Day 6): 1.4 | Stool Character (group's average score) ([4]; Study C, oral 10 mg/kg once per day, Day 1): 2.75 | Stool Character (group's average score) ([4]; Study C, oral 10 mg/kg once per day, Day 2): 2.75 | Stool Character (group's average score) ([4]; Study C, oral 10 mg/kg once per day, Day 3): 2.75 | Stool Character (group's average score) ([4]; Study C, oral 10 mg/kg once per day, Day 4): 2.5 | Stool Character (group's average score) ([4]; Study C, oral 10 mg/kg once per day, Day 5): 2 | Stool Character (group's average score) ([4]; Study C, oral 10 mg/kg once per day, Day 6): 2.5 | Stool Character (group's average score) ([4]; Study C, oral 10 mg/kg once per day, Day 7): 2.25 | Stool Character (group's average score) ([4]; Study C, oral 10 mg/kg once per day, Day 8): 2.25 | Stool Character (group's average score) ([4]; Study C, oral 10 mg/kg once per day, Day 9): 2.25 | Stool Character (group's average score) ([4]; Study C, oral 10 mg/kg once per day, Day 10): 2.25 | Stool Character (group's average score) ([4]; Study C, oral 10 mg/kg once per day, Day 11): 2.25 | Stool Character (group's average score) ([4]; Study C, oral 10 mg/kg once per day, Day 12): 1.75 | Stool Character (group's average score) ([4]; Study C, oral 10 mg/kg once per day, Day 13): 2.25 | Stool Character (group's average score) ([4]; Study C, oral 10 mg/kg once per day, Day 14): 2 | Stool Character (group's average score) ([4]; Study C, oral 10 mg/kg once per day, Day 15): 1.75 | Stool Character (group's average score) ([4]; Study C, oral 10 mg/kg once per day, Day 16): 1.75 | Stool Character (group's average score) ([4]; Study C, oral 10 mg/kg once per day, Day 17): 1.75 | Stool Character (group's average score) ([4]; Study C, oral 10 mg/kg once per day, Day 18): 1.75 | Stool Character (group's average score) ([4]; Study C, oral 10 mg/kg once per day, Day 19): 1.75 | Stool Character (group's average score) ([4]; Study C, oral 10 mg/kg once per day, Day 20): 1.75 | Stool Character (group's average score) ([4]; Study C, oral 10 mg/kg once per day, Day 21): 1.75 | Stool Character (group's average score) ([4]; Study C, oral 10 mg/kg once per day, Day 22): 1.75 | Stool Character (group's average score) ([4]; Study C, oral 10 mg/kg once per day, Day 23): 1.75 | Stool Character (group's average score) ([4]; Study C, oral 10 mg/kg once per day, Day 24): 2 | Stool Character (group's average score) ([4]; Study C, oral 20 mg/kg once per day (10 mg/kg earlier), Day 25): 2 | Stool Character (group's average score) ([4]; Study C, oral 20 mg/kg once per day (10 mg/kg earlier), Day 26): 2.25 | Stool Character (group's average score) ([4]; Study C, oral 20 mg/kg once per day (10 mg/kg earlier), Day 27): 1.75 | Stool Character (group's average score) ([4]; Study C, oral 20 mg/kg once per day (10 mg/kg earlier), Day 28): 1.75 | Stool Character (group's average score) ([4]; Study C, oral 20 mg/kg once per day (10 mg/kg earlier), Day 29): 1.5 | Stool Character (group's average score) ([4]; Study C, oral 20 mg/kg once per day (10 mg/kg earlier), Day 30): 1.5 | Stool Character (group's average score) ([4]; Study C, oral 20 mg/kg once per day (10 mg/kg earlier), Day 31): 1.5 | Stool Character (group's average score) ([4]; Study C, oral 20 mg/kg once per day (10 mg/kg earlier), Day 32): 1.5 | Stool Character (group's average score) ([4]; Study C, oral 20 mg/kg once per day (10 mg/kg earlier), Day 33): 1.75 | Stool Character (group's average score) ([4]; Study C, oral 20 mg/kg once per day (10 mg/kg earlier), Day 34): 1.75 | Stool Character (group's average score) ([4]; Study C, oral 20 mg/kg once per day (10 mg/kg earlier), Day 35): 1.5 | Stool Character (group's average score) ([4]; Study C, oral 20 mg/kg once per day (10 mg/kg earlier), Day 36): 1.5 | Stool Character (group's average score) ([4]; Study C, oral 20 mg/kg once per day (10 mg/kg earlier), Day 37): 1.25 | Stool Character (group's average score) ([4]; Study C, oral 20 mg/kg once per day (10 mg/kg earlier), Day 38): 1.75
